The supplement of paper PMC10307832

Tests used:
Assay in all cases: relative viability (nuclei count vs DMSO), 5 days (fraction); higher = more cells survive
[1] = compound: C1=CC=C(C(=C1)C2=CC=C(C=C2)C3=CSC4=C3C(=C(C(=O)N4)C#N)O)O + CS(=O)(=O)N1CCN(Cc2cc3nc(-c4cccc5[nH]ncc45)nc(N4CCOCC4)c3s2)CC1 [Pictilisib] (partner 1 µM)
How it was run: (§1)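 Relative viability equals treated-well nuclei counts divided by vehicle-well nuclei counts. Counts came from 4× images of lung cancer cell lines grown in 1536-well plates for 5 days after pin-tool dosing on the day after seeding. Dosing used one drug alone or a fixed anchor-drug dose plus five library-drug doses (not always all listed) in √10 steps, and values are medians of duplicate plates.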

TGX 221 + Lapatinib = compound: CC1=CN2C(=O)C=C(N=C2C(=C1)C(C)NC3=CC=CC=C3)N4CCOCC4 [TGX 221] + CS(=O)(=O)CCNCc1ccc(-c2ccc3ncnc(Nc4ccc(OCc5cccc(F)c5)c(Cl)c4)c3c2)o1 [Lapatinib] (partner 2 µM)
How it was run: as §1

[2] = compound: O=C(CCCCCCNC(=O)c1cnc(N(c2ccccc2)c2ccccc2)nc1)NO [Ricolinostat] + CC1(C)CCC(c2ccc(Cl)cc2)=C(CN2CCN(c3ccc(C(=O)NS(=O)(=O)c4ccc(N[C@H](CCN5CCOCC5)CSc5ccccc5)c(S(=O)(=O)C(F)(F)F)c4)cc3)CC2)C1 [Navitoclax] (partner 0.5 µM)
How it was run: as §1

[3] = compound: O=C(CCCCCCNC(=O)c1cnc(N(c2ccccc2)c2ccccc2)nc1)NO [Ricolinostat] + C[C@]1(O)C[C@@H](c2nc(-c3ccc4ccc(-c5ccccc5)nc4c3)c3c(N)nccn32)C1 [Linsitinib] (partner 1 µM)
How it was run: as §1

Row | Cell Line | relative viability ([1]; first compound 0.08 µM) | relative viability ([1]; first compound 0.253 µM) | relative viability ([1]; first compound 0.8 µM) | relative viability ([1]; first compound 2.53 µM) | relative viability ([1]; first compound 8 µM) | relative viability (TGX 221 + Lapatinib; first compound 0.08 µM) | relative viability (TGX 221 + Lapatinib; first compound 0.253 µM) | relative viability (TGX 221 + Lapatinib; first compound 0.8 µM) | relative viability (TGX 221 + Lapatinib; first compound 2.53 µM) | relative viability (TGX 221 + Lapatinib; first compound 8 µM) | relative viability ([2]; first compound 0.08 µM) | relative viability ([2]; first compound 0.253 µM) | relative viability ([2]; first compound 0.8 µM) | relative viability ([2]; first compound 2.53 µM) | relative viability ([3]; first compound 0.08 µM) | relative viability ([3]; first compound 0.253 µM) | relative viability ([3]; first compound 0.8 µM) | relative viability ([3]; first compound 2.53 µM)
1 | HCC-366 | 0.196 | 0.154 | 0.0996 | 0.174 | 0.164 | 1.02 | 1 | 0.875 | 1.04 | 1.04 | 0.831 | 0.957 | 1.06 | 0.978 | 0.454 | 0.67 | 0.478 | 0.454
2 | HCC-827 | 1.11 | 1.05 | 0.819 | 0.996 | 0.986 | 0.187 | 0.205 | 0.2 | 0.191 | 0.205 | 0.95 | 1.02 | 1.01 | 0.909 | 0.896 | 0.91 | 0.966 | 1.02
3 | HOP-62 | 0.774 | 0.773 | 0.673 | 0.837 | 0.434 | 1.15 | 0.987 | 1.09 | 1.02 | 0.912 | 0.887 | 1.01 | 1.03 | 1.08 | 1.03 | 0.991 | 0.943 | 0.644
4 | IA-LM | 0.273 | 0.452 | 0.287 | 0.369 | 0.238 | 0.783 | 0.797 | 0.979 | 1.01 | 0.612 | 0.802 | 0.626 | 0.747 | 0.603 | 0.335 | 0.529 | 0.594 | 0.259
5 | LC-2-ad | 0.42 | 0.537 | 0.374 | 0.473 | 0.355 | 0.943 | – | 0.972 | 1.01 | 0.978 | 0.535 | 0.485 | 0.506 | 0.334 | 0.799 | 0.834 | 0.825 | 0.684
6 | LCLC-97TM1 | 0.168 | 0.284 | 0.198 | 0.2 | 0.176 | 1.12 | 0.726 | 1.12 | 1.05 | 1.02 | 0.41 | 0.431 | 0.485 | 0.357 | 0.171 | 0.199 | 0.231 | 0.172
7 | LCLC-103H | 0.544 | 0.664 | 0.541 | 0.554 | 0.576 | – | – | – | – | – | – | – | – | – | 0.925 | 1.06 | 1.09 | 1.11
8 | LK-2 | – | – | 0.507 | 0.656 | 0.514 | 0.853 | 0.891 | 0.887 | 0.915 | 1.01 | 0.841 | 0.898 | 0.811 | 0.842 | 0.629 | 0.645 | 0.613 | 0.524
9 | LOU-NH91 | 0.482 | 0.538 | 0.51 | 0.515 | 0.512 | 0.71 | 0.814 | 0.751 | 0.728 | 0.739 | – | 0.777 | 0.642 | 0.6 | – | 0.927 | 0.973 | 0.88
10 | LU99A | 0.283 | 0.307 | 0.339 | 0.332 | 0.295 | 0.957 | 0.865 | 0.939 | 1.01 | 0.913 | 0.782 | 0.701 | 0.603 | 0.491 | 0.495 | 0.473 | 0.455 | 0.419
11 | LXF-289 | 0.677 | 0.831 | 0.781 | 0.81 | 0.779 | 0.933 | 0.889 | 0.955 | 0.904 | 0.885 | 0.904 | 0.927 | 0.914 | 0.878 | 0.93 | 0.956 | 0.966 | 0.962
12 | NCI-H23 | 0.439 | 0.462 | 0.563 | 0.458 | 0.396 | 1.13 | 0.95 | 1.1 | 1.12 | 0.975 | 0.82 | 0.791 | 0.924 | 0.932 | 0.476 | 0.625 | 0.59 | 0.514
13 | NCI-H322M | 0.511 | 0.495 | 0.494 | 0.477 | 0.499 | 0.567 | 0.6 | 0.547 | 0.562 | 0.67 | – | 1.2 | 1.27 | 1.08 | – | 0.865 | 1.01 | 0.968
14 | NCI-H358 | 0.415 | 0.344 | 0.329 | 0.342 | 0.414 | 0.477 | 0.458 | 0.472 | 0.42 | 0.442 | – | – | – | – | 0.513 | 0.782 | 0.808 | 0.763
15 | NCI-H441 | 0.437 | 0.596 | 0.593 | 0.546 | 0.452 | – | – | – | – | – | 0.77 | 0.411 | 0.798 | 0.357 | 0.478 | 0.62 | 0.624 | 0.396
16 | NCI-H650 | 0.978 | 0.975 | 0.841 | 0.86 | 0.91 | 1 | 0.98 | 0.706 | 0.908 | 0.76 | – | – | – | – | – | 0.853 | 0.563 | 0.439
17 | NCI-H661 | 0.331 | 0.425 | 0.333 | 0.39 | 0.349 | 0.486 | 0.376 | 0.439 | 0.382 | 0.394 | – | – | – | – | – | 0.53 | 0.792 | 0.779
18 | NCI-H1563 | 0.629 | 0.655 | 0.689 | 0.703 | 0.637 | 0.922 | 0.871 | 0.791 | 0.851 | 0.796 | – | – | – | – | 1.19 | 1.12 | 1.08 | 0.982
19 | NCI-H1650 | – | 0.855 | 0.681 | 0.53 | 0.501 | 0.654 | 0.64 | 0.617 | 0.759 | 0.581 | 0.948 | 1.19 | 1.12 | 0.82 | – | – | – | –
20 | NCI-H2170 | 0.337 | 0.304 | 0.273 | 0.3 | 0.358 | 0.285 | 0.26 | 0.264 | 0.276 | 0.265 | 0.607 | 0.495 | 0.633 | 0.662 | – | – | – | –
